Laboratory results reported in US10711002B2, “Purine compounds and method for the treatment of cancer” (THE ROYAL INSTITUTION FOR THE ADVANCEMENT OF …, priority 2016, dated 2020).

Biological target: T1, AURKA (Aurora A) (Homo sapiens, UniProt O14965)
T1 sequence (O14965 1-403): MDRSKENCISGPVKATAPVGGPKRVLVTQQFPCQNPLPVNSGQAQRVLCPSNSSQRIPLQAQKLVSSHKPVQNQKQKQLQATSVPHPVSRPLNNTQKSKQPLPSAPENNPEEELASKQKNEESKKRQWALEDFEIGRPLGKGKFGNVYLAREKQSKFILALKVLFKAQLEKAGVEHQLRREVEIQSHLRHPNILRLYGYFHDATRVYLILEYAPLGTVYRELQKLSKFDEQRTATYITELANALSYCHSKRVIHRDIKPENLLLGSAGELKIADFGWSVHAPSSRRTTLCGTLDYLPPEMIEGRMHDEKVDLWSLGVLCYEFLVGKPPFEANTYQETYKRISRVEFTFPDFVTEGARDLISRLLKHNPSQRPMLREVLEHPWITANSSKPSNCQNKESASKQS
Assay: High-throughput kinase assay
Format: biochemical
Conditions: 100 nM; read-out: Percent inhibition of kinase activity in vitro, AURKA (Aurora A)
Description: (§1) Screening of Compounds 1-4 against several kinases identified two prominent targets of these compounds as the Aurora A kinase and calcium dependent protein kinase C isoforms α, βI, βII and […] (Tables 1 to 3). IC50s for these two targets were obtained by plotting inhibition levels at 500 nM, 100 nM, 50 nM and 10 nM (FIG. 3). These kinases are directly involved in pathways controlling cell differentiation programs, metastasis signaling, as well as EMT and CSC programming and their overexpression was reported to predict decreased metastasis-free survival.

SMILES | inhibition at 0.1 µM [%]
C[C@@H]1C(Nc2nc(-n3[se]c4ccccc4c3=O)nc3[nH]cnc23)C[C@H]2C[C@@H]1C2(C)C (stereo partly shown) [Compound 3] | 78
O=C1c2ccccc2CN1c1nc(NC2CCCCC2)c2nc[nH]c2n1 [SLLN-6C, reference compound] | 4

Same assay, conditions: 500 nM; read-out: Percent inhibition of kinase activity in vitro, AURKA (Aurora A)

SMILES | inhibition at 0.5 µM [%]
C[C@@H]1C(Nc2nc(-n3[se]c4ccccc4c3=O)nc3[nH]cnc23)C[C@H]2C[C@@H]1C2(C)C (stereo partly shown) [Compound 3] | 99

Biological target: AURKB (Aurora B) (Homo sapiens, UniProt Q96GD4)
Assay: High-throughput kinase assay
Format: biochemical
Conditions: 100 nM; read-out: Percent inhibition of kinase activity in vitro, AURKB (Aurora B)
Description: as §1

AURKB (Aurora B), sequence (Q96GD4 whole entry): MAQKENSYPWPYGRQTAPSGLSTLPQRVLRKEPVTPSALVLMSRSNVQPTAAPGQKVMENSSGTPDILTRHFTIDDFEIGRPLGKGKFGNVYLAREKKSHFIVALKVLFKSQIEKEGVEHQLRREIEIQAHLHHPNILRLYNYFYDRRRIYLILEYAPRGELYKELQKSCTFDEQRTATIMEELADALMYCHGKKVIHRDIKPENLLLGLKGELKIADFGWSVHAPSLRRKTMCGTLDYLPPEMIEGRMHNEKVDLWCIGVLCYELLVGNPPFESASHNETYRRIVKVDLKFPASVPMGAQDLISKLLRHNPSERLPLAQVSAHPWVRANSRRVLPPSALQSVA

SMILES | inhibition at 0.1 µM [%]
C[C@@H]1C(Nc2nc(-n3[se]c4ccccc4c3=O)nc3[nH]cnc23)C[C@H]2C[C@@H]1C2(C)C (stereo partly shown) [Compound 3] | 24
O=C1c2ccccc2CN1c1nc(NC2CCCCC2)c2nc[nH]c2n1 [SLLN-6C, reference compound] | 10

Same assay, conditions: 500 nM; read-out: Percent inhibition of kinase activity in vitro, AURKB (Aurora B)

SMILES | inhibition at 0.5 µM [%]
C[C@@H]1C(Nc2nc(-n3[se]c4ccccc4c3=O)nc3[nH]cnc23)C[C@H]2C[C@@H]1C2(C)C (stereo partly shown) [Compound 3] | 19

Biological target: BRAF-ZLYTE-100 (Homo sapiens, UniProt P15056)
Assay: High-throughput kinase assay
Format: biochemical
Conditions: 100 nM; read-out: Percent inhibition of kinase activity in vitro, BRAF-ZLYTE-100
Description: as §1

SMILES | inhibition at 0.1 µM [%]
C[C@@H]1C(Nc2nc(-n3[se]c4ccccc4c3=O)nc3[nH]cnc23)C[C@H]2C[C@@H]1C2(C)C (stereo partly shown) [Compound 3] | 0
O=C1c2ccccc2CN1c1nc(NC2CCCCC2)c2nc[nH]c2n1 [SLLN-6C, reference compound] | 1

Biological target: EGFR (ErbB1) (Homo sapiens, UniProt P00533)
Assay: High-throughput kinase assay
Format: biochemical
Conditions: 100 nM; read-out: Percent inhibition of kinase activity in vitro, EGFR (ErbB1)
Description: as §1

EGFR (ErbB1), sequence (P00533 25-1210): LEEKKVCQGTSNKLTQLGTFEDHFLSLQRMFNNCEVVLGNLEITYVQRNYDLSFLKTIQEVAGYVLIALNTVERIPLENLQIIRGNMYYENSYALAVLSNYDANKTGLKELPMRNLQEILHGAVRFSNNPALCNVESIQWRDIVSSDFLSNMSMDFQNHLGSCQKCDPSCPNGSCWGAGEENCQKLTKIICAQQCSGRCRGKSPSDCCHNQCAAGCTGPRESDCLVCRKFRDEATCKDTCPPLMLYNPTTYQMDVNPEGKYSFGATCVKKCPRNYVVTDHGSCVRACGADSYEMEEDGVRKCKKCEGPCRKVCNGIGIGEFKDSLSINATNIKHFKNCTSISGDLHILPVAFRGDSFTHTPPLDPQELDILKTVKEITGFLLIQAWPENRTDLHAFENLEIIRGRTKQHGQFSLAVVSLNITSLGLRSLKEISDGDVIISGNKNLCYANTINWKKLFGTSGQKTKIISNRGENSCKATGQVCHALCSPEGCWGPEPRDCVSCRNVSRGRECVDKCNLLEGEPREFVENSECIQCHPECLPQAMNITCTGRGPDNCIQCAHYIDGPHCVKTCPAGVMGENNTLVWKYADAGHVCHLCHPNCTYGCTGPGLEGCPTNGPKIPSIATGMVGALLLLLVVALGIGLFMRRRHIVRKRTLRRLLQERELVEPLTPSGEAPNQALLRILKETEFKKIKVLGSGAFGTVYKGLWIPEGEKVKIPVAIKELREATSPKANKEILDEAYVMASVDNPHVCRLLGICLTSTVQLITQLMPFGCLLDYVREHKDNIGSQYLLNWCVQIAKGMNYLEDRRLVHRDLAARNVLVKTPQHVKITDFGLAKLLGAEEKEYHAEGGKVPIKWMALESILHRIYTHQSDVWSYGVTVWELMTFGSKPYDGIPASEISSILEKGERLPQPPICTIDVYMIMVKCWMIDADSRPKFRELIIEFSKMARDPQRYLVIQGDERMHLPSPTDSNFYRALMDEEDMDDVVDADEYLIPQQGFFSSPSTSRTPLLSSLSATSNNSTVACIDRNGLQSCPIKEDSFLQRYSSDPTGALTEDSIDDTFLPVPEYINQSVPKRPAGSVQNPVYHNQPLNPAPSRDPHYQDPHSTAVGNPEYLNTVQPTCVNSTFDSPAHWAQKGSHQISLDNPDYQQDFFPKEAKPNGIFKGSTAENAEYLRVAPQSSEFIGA

SMILES | inhibition at 0.1 µM [%]
O=C1c2ccccc2CN1c1nc(NC2CCCCC2)c2nc[nH]c2n1 [SLLN-6C, reference compound] | 4

Same assay, conditions: 500 nM; read-out: Percent inhibition of kinase activity in vitro, EGFR (ErbB1)

SMILES | inhibition at 0.5 µM [%]
C[C@@H]1C(Nc2nc(-n3[se]c4ccccc4c3=O)nc3[nH]cnc23)C[C@H]2C[C@@H]1C2(C)C (stereo partly shown) [Compound 3] | 0

Biological target: FLT1 (VEGFR1) (Homo sapiens, UniProt P17948)
Assay: High-throughput kinase assay
Format: biochemical
Conditions: 100 nM; read-out: Percent inhibition of kinase activity in vitro, FLT1 (VEGFR1)
Description: as §1

SMILES | inhibition at 0.1 µM [%]
O=C1c2ccccc2CN1c1nc(NC2CCCCC2)c2nc[nH]c2n1 [SLLN-6C, reference compound] | 0

Same assay, conditions: 500 nM; read-out: Percent inhibition of kinase activity in vitro, FLT1 (VEGFR1)

SMILES | inhibition at 0.5 µM [%]
C[C@@H]1C(Nc2nc(-n3[se]c4ccccc4c3=O)nc3[nH]cnc23)C[C@H]2C[C@@H]1C2(C)C (stereo partly shown) [Compound 3] | 7

Biological target: FRAP1 (mTOR) (Homo sapiens, UniProt P42345)
Assay: High-throughput kinase assay
Format: biochemical
Conditions: 100 nM; read-out: Percent inhibition of kinase activity in vitro, FRAP1 (mTOR)
Description: as §1

SMILES | inhibition at 0.1 µM [%]
O=C1c2ccccc2CN1c1nc(NC2CCCCC2)c2nc[nH]c2n1 [SLLN-6C, reference compound] | 0

Same assay, conditions: 500 nM; read-out: Percent inhibition of kinase activity in vitro, FRAP1 (mTOR)

SMILES | inhibition at 0.5 µM [%]
C[C@@H]1C(Nc2nc(-n3[se]c4ccccc4c3=O)nc3[nH]cnc23)C[C@H]2C[C@@H]1C2(C)C (stereo partly shown) [Compound 3] | 1

Biological target: IGF1R (Homo sapiens, UniProt P08069)
Assay: High-throughput kinase assay
Format: biochemical
Conditions: 100 nM; read-out: Percent inhibition of kinase activity in vitro, IGF1R
Description: as §1

SMILES | inhibition at 0.1 µM [%]
O=C1c2ccccc2CN1c1nc(NC2CCCCC2)c2nc[nH]c2n1 [SLLN-6C, reference compound] | 0

Same assay, conditions: 500 nM; read-out: Percent inhibition of kinase activity in vitro, IGF1R

SMILES | inhibition at 0.5 µM [%]
C[C@@H]1C(Nc2nc(-n3[se]c4ccccc4c3=O)nc3[nH]cnc23)C[C@H]2C[C@@H]1C2(C)C (stereo partly shown) [Compound 3] | 13

Biological target: JAK2 (Homo sapiens, UniProt O60674)
Assay: High-throughput kinase assay
Format: biochemical
Conditions: 100 nM; read-out: Percent inhibition of kinase activity in vitro, JAK2
Description: as §1

JAK2, sequence (O60674 whole entry): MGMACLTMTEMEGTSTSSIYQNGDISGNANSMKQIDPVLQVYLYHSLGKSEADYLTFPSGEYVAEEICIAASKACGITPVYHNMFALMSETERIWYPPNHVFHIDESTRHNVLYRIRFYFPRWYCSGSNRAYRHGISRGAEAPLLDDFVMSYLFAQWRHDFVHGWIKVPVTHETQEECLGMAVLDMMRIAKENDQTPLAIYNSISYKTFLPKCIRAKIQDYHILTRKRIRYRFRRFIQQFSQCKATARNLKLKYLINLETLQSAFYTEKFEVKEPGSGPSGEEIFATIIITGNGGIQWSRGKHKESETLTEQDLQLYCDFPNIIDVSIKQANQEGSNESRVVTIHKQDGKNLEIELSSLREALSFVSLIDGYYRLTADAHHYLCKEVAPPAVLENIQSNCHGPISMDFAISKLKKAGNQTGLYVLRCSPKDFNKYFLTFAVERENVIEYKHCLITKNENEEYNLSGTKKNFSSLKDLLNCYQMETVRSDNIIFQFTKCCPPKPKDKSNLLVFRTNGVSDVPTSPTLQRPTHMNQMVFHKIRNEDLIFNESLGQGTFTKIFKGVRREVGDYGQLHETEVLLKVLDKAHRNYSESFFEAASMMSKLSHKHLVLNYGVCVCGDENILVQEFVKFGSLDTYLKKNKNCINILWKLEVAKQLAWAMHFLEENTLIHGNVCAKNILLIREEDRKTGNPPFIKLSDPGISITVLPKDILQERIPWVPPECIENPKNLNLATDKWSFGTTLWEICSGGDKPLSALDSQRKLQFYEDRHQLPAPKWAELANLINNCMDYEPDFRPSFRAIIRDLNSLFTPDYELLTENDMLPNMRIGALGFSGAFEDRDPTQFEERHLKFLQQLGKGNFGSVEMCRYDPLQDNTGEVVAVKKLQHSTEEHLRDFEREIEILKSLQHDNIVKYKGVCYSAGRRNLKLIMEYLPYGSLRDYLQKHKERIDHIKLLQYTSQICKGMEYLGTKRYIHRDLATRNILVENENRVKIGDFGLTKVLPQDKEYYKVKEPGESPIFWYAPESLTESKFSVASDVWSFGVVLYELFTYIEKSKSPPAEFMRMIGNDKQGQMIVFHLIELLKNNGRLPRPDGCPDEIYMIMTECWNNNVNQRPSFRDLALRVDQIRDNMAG

SMILES | inhibition at 0.1 µM [%]
C[C@@H]1C(Nc2nc(-n3[se]c4ccccc4c3=O)nc3[nH]cnc23)C[C@H]2C[C@@H]1C2(C)C (stereo partly shown) [Compound 3] | 13
O=C1c2ccccc2CN1c1nc(NC2CCCCC2)c2nc[nH]c2n1 [SLLN-6C, reference compound] | 7

Same assay, conditions: 500 nM; read-out: Percent inhibition of kinase activity in vitro, JAK2

SMILES | inhibition at 0.5 µM [%]
C[C@@H]1C(Nc2nc(-n3[se]c4ccccc4c3=O)nc3[nH]cnc23)C[C@H]2C[C@@H]1C2(C)C (stereo partly shown) [Compound 3] | 11

Biological target: LCK (Homo sapiens, UniProt P06239)
Assay: High-throughput kinase assay
Format: biochemical
Conditions: 100 nM; read-out: Percent inhibition of kinase activity in vitro, LCK
Description: as §1

LCK, sequence (P06239 whole entry): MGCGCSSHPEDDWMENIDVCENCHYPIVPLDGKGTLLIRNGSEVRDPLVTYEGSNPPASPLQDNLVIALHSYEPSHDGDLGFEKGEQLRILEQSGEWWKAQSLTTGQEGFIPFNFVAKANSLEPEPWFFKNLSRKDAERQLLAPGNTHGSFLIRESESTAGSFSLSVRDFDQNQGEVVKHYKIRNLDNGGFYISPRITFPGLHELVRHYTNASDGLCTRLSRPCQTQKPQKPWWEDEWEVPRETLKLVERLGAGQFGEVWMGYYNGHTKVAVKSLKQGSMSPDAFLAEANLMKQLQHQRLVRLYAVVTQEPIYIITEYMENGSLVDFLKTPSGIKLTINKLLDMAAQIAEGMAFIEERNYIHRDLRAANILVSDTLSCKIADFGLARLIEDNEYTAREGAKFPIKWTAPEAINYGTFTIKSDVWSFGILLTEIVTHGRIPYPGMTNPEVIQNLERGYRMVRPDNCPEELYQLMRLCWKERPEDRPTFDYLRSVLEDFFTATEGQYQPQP

SMILES | inhibition at 0.1 µM [%]
C[C@@H]1C(Nc2nc(-n3[se]c4ccccc4c3=O)nc3[nH]cnc23)C[C@H]2C[C@@H]1C2(C)C (stereo partly shown) [Compound 3] | 0
O=C1c2ccccc2CN1c1nc(NC2CCCCC2)c2nc[nH]c2n1 [SLLN-6C, reference compound] | 8

Same assay, conditions: 500 nM; read-out: Percent inhibition of kinase activity in vitro, LCK

SMILES | inhibition at 0.5 µM [%]
C[C@@H]1C(Nc2nc(-n3[se]c4ccccc4c3=O)nc3[nH]cnc23)C[C@H]2C[C@@H]1C2(C)C (stereo partly shown) [Compound 3] | 16

Biological target: PRKCA (PKC alpha) (Homo sapiens, UniProt P17252)
Assay: High-throughput kinase assay
Format: biochemical
Conditions: 50 nM; read-out: Percent inhibition of kinase activity in vitro, PRKCA (PKC alpha)
Description: as §1

SMILES | inhibition at 0.05 µM [%]
O=C1c2ccccc2CN1c1nc(NC2CCCCC2)c2nc[nH]c2n1 [SLLN-6C, reference compound] | 14

Same assay, conditions: 100 nM; read-out: Percent inhibition of kinase activity in vitro, PRKCA (PKC alpha)

SMILES | inhibition at 0.1 µM [%]
C[C@@H]1C(Nc2nc(-n3[se]c4ccccc4c3=O)nc3[nH]cnc23)C[C@H]2C[C@@H]1C2(C)C (stereo partly shown) [Compound 3] | 45
O=C1c2ccccc2CN1c1nc(NC2CCCCC2)c2nc[nH]c2n1 [SLLN-6C, reference compound] | 0

Same assay, conditions: 500 nM; read-out: Percent inhibition of kinase activity in vitro, PRKCA (PKC alpha)

SMILES | inhibition at 0.5 µM [%]
C[C@@H]1C(Nc2nc(-n3[se]c4ccccc4c3=O)nc3[nH]cnc23)C[C@H]2C[C@@H]1C2(C)C (stereo partly shown) [Compound 3] | 86

Biological target: PRKCD (PKC delta) (Homo sapiens, UniProt Q05655)
Assay: High-throughput kinase assay
Format: biochemical
Conditions: 50 nM; read-out: Percent inhibition of kinase activity in vitro, PRKCD (PKC delta)
Description: as §1

SMILES | inhibition at 0.05 µM [%]
O=C1c2ccccc2CN1c1nc(NC2CCCCC2)c2nc[nH]c2n1 [SLLN-6C, reference compound] | 0

Biological target: T2, PRKCE (PKC epsilon) (Homo sapiens, UniProt Q02156)
T2 sequence (Q02156 1-737): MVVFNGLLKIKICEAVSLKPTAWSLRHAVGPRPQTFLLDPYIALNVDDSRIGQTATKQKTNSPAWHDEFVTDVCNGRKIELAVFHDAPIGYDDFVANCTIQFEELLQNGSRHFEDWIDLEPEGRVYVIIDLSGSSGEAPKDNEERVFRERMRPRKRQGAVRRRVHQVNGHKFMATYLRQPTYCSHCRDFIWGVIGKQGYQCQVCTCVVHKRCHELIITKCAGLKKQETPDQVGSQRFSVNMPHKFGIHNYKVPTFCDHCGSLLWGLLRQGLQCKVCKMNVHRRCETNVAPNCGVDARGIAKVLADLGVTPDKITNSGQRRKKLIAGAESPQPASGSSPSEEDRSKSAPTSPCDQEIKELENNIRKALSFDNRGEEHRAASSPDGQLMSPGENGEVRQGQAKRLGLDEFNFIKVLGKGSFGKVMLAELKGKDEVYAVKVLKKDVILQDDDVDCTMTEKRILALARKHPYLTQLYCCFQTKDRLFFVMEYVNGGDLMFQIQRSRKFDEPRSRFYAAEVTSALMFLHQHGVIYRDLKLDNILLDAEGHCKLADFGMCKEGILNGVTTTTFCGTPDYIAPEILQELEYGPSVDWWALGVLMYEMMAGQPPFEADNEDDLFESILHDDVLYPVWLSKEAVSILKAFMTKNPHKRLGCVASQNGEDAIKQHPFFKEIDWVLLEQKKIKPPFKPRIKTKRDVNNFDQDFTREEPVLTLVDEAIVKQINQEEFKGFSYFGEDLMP
Assay: High-throughput kinase assay
Format: biochemical
Conditions: 50 nM; read-out: Percent inhibition of kinase activity in vitro, PRKCE (PKC epsilon)
Description: as §1

SMILES | inhibition at 0.05 µM [%]
O=C1c2ccccc2CN1c1nc(NC2CCCCC2)c2nc[nH]c2n1 [SLLN-6C, reference compound] | 4

Biological target: RET (Homo sapiens, UniProt P07949)
Assay: High-throughput kinase assay
Format: biochemical
Conditions: 100 nM; read-out: Percent inhibition of kinase activity in vitro, RET
Description: as §1

RET, sequence (P07949 29-1114): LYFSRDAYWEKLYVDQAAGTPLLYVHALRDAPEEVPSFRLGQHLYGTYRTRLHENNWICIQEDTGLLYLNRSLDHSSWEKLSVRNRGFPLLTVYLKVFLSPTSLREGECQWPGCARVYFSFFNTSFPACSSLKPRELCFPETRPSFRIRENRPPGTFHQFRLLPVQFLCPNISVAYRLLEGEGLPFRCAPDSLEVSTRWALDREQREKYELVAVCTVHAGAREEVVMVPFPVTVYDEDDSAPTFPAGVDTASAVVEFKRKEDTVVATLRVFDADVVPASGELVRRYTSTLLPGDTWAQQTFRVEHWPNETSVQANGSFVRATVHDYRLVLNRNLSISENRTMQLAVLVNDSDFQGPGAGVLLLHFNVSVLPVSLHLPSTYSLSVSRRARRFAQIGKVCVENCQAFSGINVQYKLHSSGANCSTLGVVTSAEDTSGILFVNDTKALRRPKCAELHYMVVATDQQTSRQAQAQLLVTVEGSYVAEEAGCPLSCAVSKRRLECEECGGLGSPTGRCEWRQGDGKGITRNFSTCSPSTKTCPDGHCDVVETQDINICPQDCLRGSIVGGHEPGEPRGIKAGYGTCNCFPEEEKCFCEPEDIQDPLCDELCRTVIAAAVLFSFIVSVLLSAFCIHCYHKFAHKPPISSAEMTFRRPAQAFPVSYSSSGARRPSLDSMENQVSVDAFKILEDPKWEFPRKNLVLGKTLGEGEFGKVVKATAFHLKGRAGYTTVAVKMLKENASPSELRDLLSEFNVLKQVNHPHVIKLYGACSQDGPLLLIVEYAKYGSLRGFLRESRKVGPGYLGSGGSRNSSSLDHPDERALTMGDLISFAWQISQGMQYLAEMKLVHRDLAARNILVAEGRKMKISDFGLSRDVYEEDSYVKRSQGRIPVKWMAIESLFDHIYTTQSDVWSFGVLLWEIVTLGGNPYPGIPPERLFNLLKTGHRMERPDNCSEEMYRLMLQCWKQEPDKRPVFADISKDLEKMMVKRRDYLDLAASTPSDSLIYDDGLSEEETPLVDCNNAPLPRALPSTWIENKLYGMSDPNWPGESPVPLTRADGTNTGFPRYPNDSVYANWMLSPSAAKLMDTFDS

SMILES | inhibition at 0.1 µM [%]
C[C@@H]1C(Nc2nc(-n3[se]c4ccccc4c3=O)nc3[nH]cnc23)C[C@H]2C[C@@H]1C2(C)C (stereo partly shown) [Compound 3] | 5
O=C1c2ccccc2CN1c1nc(NC2CCCCC2)c2nc[nH]c2n1 [SLLN-6C, reference compound] | 6

Same assay, conditions: 500 nM; read-out: Percent inhibition of kinase activity in vitro, RET

SMILES | inhibition at 0.5 µM [%]
C[C@@H]1C(Nc2nc(-n3[se]c4ccccc4c3=O)nc3[nH]cnc23)C[C@H]2C[C@@H]1C2(C)C (stereo partly shown) [Compound 3] | 36
